From PubChem BioAssay (NCI) come the findings set out here.

Some test systems named below: COLO 205 colon; HCC-2998 colon; MCF7 breast; MDA-MB-231 breast; NCI-H23 lung; NCI/ADR-RES ovarian; PC-3 prostate; SF-295 CNS; SK-MEL-2 melanoma; SW-620 colon.
Assay in all cases: growth of human tumour cells (NCI), 48 h

Structures are written as SMILES.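 Following 48 hours of exposure in 96-well plates, responses at five concentrations were used to interpolate endpoints linearly. Abbreviation: GI50, concentration required for 50% inhibition of growth. TGI: total growth inhibition.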

In the case of `Clc1ccc(OCc2nnc3n2N=C(c2ccc(Cl)cc2Cl)CS3)c(Cl)c1`, the GI50 in the assay with COLO 205 colon is 34.7 µM; with HCC-2998 colon, 20.3 µM; in the assay on MCF7 breast, 22.5 µM; in the assay with MDA-MB-231 breast, 14.9 µM; in the assay on NCI-H23 lung it was 22.5 µM; in the assay with NCI/ADR-RES ovarian it was 27 µM. In addition, the GI50 in the assay with PC-3 prostate is 29.5 µM; with SF-295 CNS, 23.9 µM; in the assay on SK-MEL-2 melanoma, 25.1 µM; in the assay on SW-620 colon, 31.3 µM. For the same molecule, the TGI in the assay on COLO 205 colon was greater than 100 µM; in the assay on HCC-2998 colon it was 37.2 µM; in the assay with MCF7 breast, 92.8 µM; with MDA-MB-231 breast, 38.3 µM; with NCI-H23 lung it was 55.4 µM; with NCI/ADR-RES ovarian, 91.6 µM. The TGI was greater than 100 µM in the assay on PC-3 prostate, 79.7 µM in the assay on SF-295 CNS, 57 µM with SK-MEL-2 melanoma and greater than 100 µM in the assay on SW-620 colon.
For `C=C1C(=O)O[C@H]2[C@H]1CC/C(COC(=O)c1cc3cc(OC)ccc3[nH]1)=C\CC[C@@]1(C)O[C@@H]21`, the GI50 in the assay with COLO 205 colon is 1.18 µM; in the assay on HCC-2998 colon, 1.54 µM; in the assay on MCF7 breast it was 0.341 µM; in the assay with MDA-MB-231 breast, 1.58 µM; with NCI-H23 lung, 1.49 µM; with NCI/ADR-RES ovarian, 1.68 µM. Moreover, the GI50 in the assay on PC-3 prostate was 1.83 µM; in the assay on SF-295 CNS it was 2.42 µM; with SK-MEL-2 melanoma, 1.6 µM; with SW-620 colon it was 0.647 µM. For the same molecule, the TGI in the assay with COLO 205 colon worked out at 2.72 µM; in the assay with HCC-2998 colon, 2.91 µM; in the assay with MCF7 breast it was 1.74 µM; in the assay on MDA-MB-231 breast, 3.2 µM; in the assay on NCI-H23 lung, 2.97 µM; in the assay with NCI/ADR-RES ovarian, 4.9 µM. Moreover, the TGI turned out to be 3.65 µM in the assay with PC-3 prostate, 10.8 µM in the assay on SF-295 CNS, 3.05 µM with SK-MEL-2 melanoma and 2.34 µM in the assay with SW-620 colon.
For the molecule `CC1=C(C)C(=O)O[C@@H]([C@](C)(O)[C@]2(O)CC[C@@]3(O)[C@@H]4C[C@H]5O[C@]56CC=CC(=O)[C@]6(C)[C@H]4CC[C@]23C)C1`, the GI50 was 0.0398 µM in the assay on COLO 205 colon; 0.772 µM in the assay with HCC-2998 colon; 0.0668 µM with MCF7 breast; 0.394 µM in the assay with MDA-MB-231 breast; 0.254 µM in the assay with NCI-H23 lung; 2.76 µM in the assay on NCI/ADR-RES ovarian. For the same molecule, the GI50 in the assay on PC-3 prostate is 0.247 µM; with SF-295 CNS, 0.62 µM; in the assay on SK-MEL-2 melanoma it was 0.0761 µM; with SW-620 colon, 0.0989 µM. In addition, the TGI with COLO 205 colon was 0.176 µM; in the assay with HCC-2998 colon, 2.17 µM; in the assay with MCF7 breast, 2.8 µM; in the assay with MDA-MB-231 breast, 7.66 µM; in the assay with NCI-H23 lung, 2.93 µM; in the assay with NCI/ADR-RES ovarian, greater than 63.8 µM. Besides, the TGI with PC-3 prostate is 5.97 µM; in the assay on SF-295 CNS, 14.7 µM; in the assay with SK-MEL-2 melanoma it was 0.481 µM; in the assay on SW-620 colon, 1.1 µM.
For the molecule `CC(C)(C)c1nc2c(o1)C(=Nc1ccc(F)cc1)c1ccccc1C2=O`, the TGI in the assay on COLO 205 colon is 30.7 µM; in the assay on HCC-2998 colon, 20.5 µM; with MCF7 breast, 29.1 µM; with MDA-MB-231 breast it was greater than 100 µM; in the assay on NCI-H23 lung, 8.98 µM; in the assay on NCI/ADR-RES ovarian, greater than 56.7 µM. In addition, the TGI in the assay on PC-3 prostate was greater than 100 µM; in the assay on SF-295 CNS, 19.6 µM; in the assay on SK-MEL-2 melanoma it was 8.03 µM; in the assay on SW-620 colon, 30 µM.
In the case of `CCn1c(-c2nonc2N)nc2ccc(F)cc21`, the GI50 in the assay with COLO 205 colon, in the assay with HCC-2998 colon, with MCF7 breast, in the assay on MDA-MB-231 breast, with NCI-H23 lung and in the assay on NCI/ADR-RES ovarian was greater than 25 µM in each case. The GI50 in the assay on PC-3 prostate, with SF-295 CNS, in the assay on SK-MEL-2 melanoma and in the assay on SW-620 colon was greater than 25 µM each time. The TGI in the assay with COLO 205 colon, with HCC-2998 colon, in the assay with MCF7 breast, in the assay with MDA-MB-231 breast, with NCI-H23 lung and in the assay on NCI/ADR-RES ovarian was greater than 25 µM each time. In addition, the TGI with PC-3 prostate, with SF-295 CNS, with SK-MEL-2 melanoma and with SW-620 colon was greater than 25 µM in each case.
As for `CC(=O)[CH-]C(C)=O.CC(=O)[CH-]C(C)=O.N=CC=N.[Sn+2]`, the GI50 was 2.02 µM in the assay with COLO 205 colon; 12.5 µM with HCC-2998 colon; 2.63 µM with MCF7 breast; 2.72 µM in the assay with MDA-MB-231 breast; 3.23 µM with NCI-H23 lung; 3.15 µM with NCI/ADR-RES ovarian. Also, the GI50 with PC-3 prostate was 5.03 µM; with SF-295 CNS, 10.4 µM; with SK-MEL-2 melanoma, 3.46 µM; in the assay with SW-620 colon, 1.71 µM. Also, the TGI is 3.61 µM in the assay on COLO 205 colon; 25.2 µM with HCC-2998 colon; 12 µM with MCF7 breast; 9.87 µM in the assay on MDA-MB-231 breast; 10.9 µM in the assay on NCI-H23 lung; 12.6 µM with NCI/ADR-RES ovarian. Besides, the TGI in the assay on PC-3 prostate is 17.6 µM; with SF-295 CNS, 23.3 µM; with SK-MEL-2 melanoma it was 11.2 µM; in the assay on SW-620 colon it was 3.11 µM.
Consider `CCN(CCO)CCNc1ccc(C)c2sc3cc(Cl)ccc3c(=O)c12`, for which the GI50 with COLO 205 colon was 1.14 µM; in the assay on HCC-2998 colon it was 1.51 µM; with MCF7 breast, 1.21 µM; with MDA-MB-231 breast, 0.783 µM; with NCI-H23 lung it was 1.63 µM; in the assay with NCI/ADR-RES ovarian, 1.49 µM. For the same molecule, the GI50 in the assay with PC-3 prostate is 1.34 µM; in the assay on SF-295 CNS it was 1.61 µM; in the assay on SK-MEL-2 melanoma, 1.78 µM; in the assay on SW-620 colon it was 1.27 µM. In addition, the TGI in the assay on COLO 205 colon is 2.62 µM; in the assay with HCC-2998 colon, 3.14 µM; in the assay on MCF7 breast it was 2.78 µM; in the assay with MDA-MB-231 breast, 2.24 µM; in the assay with NCI-H23 lung, 3.45 µM; in the assay on NCI/ADR-RES ovarian it was 3.11 µM. Besides, the TGI was found to be 2.94 µM in the assay on PC-3 prostate, 3.19 µM with SF-295 CNS, 3.56 µM with SK-MEL-2 melanoma and 2.77 µM with SW-620 colon.
As to `COc1cc(-c2cn(C)c(=O)c(C)c2C)cc(OC)c1CN1CC[C@H](N2CCN(c3ccc(N[C@H]4CCC(=O)NC4=O)cc3F)CC2)C(F)(F)C1`, the GI50 was 14.4 µM in the assay on COLO 205 colon; 12.9 µM in the assay with HCC-2998 colon; 3.16 µM in the assay on MCF7 breast; 11.5 µM in the assay on MDA-MB-231 breast; 14 µM with NCI-H23 lung; 12.9 µM in the assay with NCI/ADR-RES ovarian. Moreover, the GI50 is 11 µM in the assay on PC-3 prostate, 11.9 µM in the assay with SF-295 CNS, 14.6 µM in the assay on SK-MEL-2 melanoma and 17.9 µM in the assay with SW-620 colon. The TGI was found to be 37.4 µM in the assay on COLO 205 colon; 25.8 µM in the assay with HCC-2998 colon; 29.6 µM with MCF7 breast; 25.4 µM in the assay with MDA-MB-231 breast; 28.6 µM in the assay on NCI-H23 lung; 30.5 µM in the assay on NCI/ADR-RES ovarian. For the same molecule, the TGI with PC-3 prostate was 47.1 µM; in the assay with SF-295 CNS, 25.5 µM; in the assay with SK-MEL-2 melanoma, 29.4 µM; in the assay with SW-620 colon, 38 µM.
For `NCCN1CCN(c2nccc(-c3ccc4ccccc4c3)n2)CC1`, the GI50 in the assay with COLO 205 colon is 1.76 µM; in the assay with HCC-2998 colon, 1.74 µM; with MCF7 breast, 1.67 µM; in the assay with MDA-MB-231 breast, 1.66 µM; in the assay with NCI-H23 lung, 4.17 µM; in the assay on NCI/ADR-RES ovarian, 2.48 µM. The GI50 is 1.86 µM in the assay with PC-3 prostate, 1.68 µM with SF-295 CNS, 2.21 µM with SK-MEL-2 melanoma and 1.83 µM in the assay on SW-620 colon. Also, the TGI with COLO 205 colon is 3.41 µM; in the assay on HCC-2998 colon it was 3.46 µM; in the assay on MCF7 breast it was 3.52 µM; with MDA-MB-231 breast it was 3.31 µM; in the assay on NCI-H23 lung, 16.5 µM; with NCI/ADR-RES ovarian, 6.71 µM. The TGI is 4.36 µM in the assay with PC-3 prostate, 3.34 µM with SF-295 CNS, 4.36 µM in the assay on SK-MEL-2 melanoma and 3.61 µM in the assay with SW-620 colon.
Regarding `CCOC(=O)[C@@H](C)C[C@H](Cc1ccccc1)NC(=O)c1csc([C@@H](C[C@H](C(C)C)N(C)C(=O)[C@@H](NC(=O)[C@H]2CCCCN2C)C(C)(C)C)OC(C)=O)n1`, the GI50 in the assay on COLO 205 colon is less than 0.00167 µM; in the assay on HCC-2998 colon, less than 0.00167 µM; in the assay on MCF7 breast, less than 0.00167 µM; in the assay with MDA-MB-231 breast, less than 0.00167 µM; with NCI-H23 lung, less than 0.00167 µM; in the assay with NCI/ADR-RES ovarian, 0.00542 µM. Also, the GI50 with PC-3 prostate, in the assay on SF-295 CNS, in the assay with SK-MEL-2 melanoma and with SW-620 colon was less than 0.00167 µM throughout. The TGI with COLO 205 colon is 0.00432 µM; with MCF7 breast, greater than 16.7 µM; with MDA-MB-231 breast, 0.647 µM; in the assay with NCI-H23 lung, greater than 16.7 µM; in the assay with PC-3 prostate it was greater than 16.7 µM; with SF-295 CNS, 0.0918 µM. The TGI with SK-MEL-2 melanoma and in the assay on SW-620 colon was greater than 16.7 µM throughout.
In the case of `CNC(=O)c1cc(Oc2ccc(NC(=O)Nc3ccc(Cl)c(OC(F)(F)F)c3)c(F)c2)ccn1`, the GI50 is 1.14 µM in the assay on COLO 205 colon; 1.62 µM in the assay with HCC-2998 colon; 1.12 µM with MCF7 breast; 1.26 µM with MDA-MB-231 breast; 0.913 µM in the assay with NCI-H23 lung; 1.37 µM with NCI/ADR-RES ovarian. For the same molecule, the GI50 in the assay with PC-3 prostate is 1.48 µM; with SF-295 CNS it was 1.1 µM; with SK-MEL-2 melanoma, 1.03 µM; with SW-620 colon, 2.13 µM. For the same molecule, the TGI with COLO 205 colon turned out to be 7.65 µM; in the assay on HCC-2998 colon, 7.08 µM; in the assay with MCF7 breast, 7.17 µM; in the assay with MDA-MB-231 breast, 8.74 µM; in the assay on NCI-H23 lung, 5.58 µM; with NCI/ADR-RES ovarian it was 5.22 µM. In addition, the TGI in the assay with PC-3 prostate is 19 µM; with SF-295 CNS, 5.25 µM; in the assay on SK-MEL-2 melanoma, 5.86 µM; in the assay with SW-620 colon, greater than 33.2 µM.
